The text below walks through data of patent publication US20220402874A1, “SOLID FORMS OF OMECAMTIV MECARBIL DIHYDROCHLORIDE AND PROCESSES THEREOF” (DR. REDDY'S LABORATORIES LIMITED, priority 2019, published 2022).

Data set [1] in a line: storage stability of the solid form in a closed container (PXRD). The data set is classed as physicochemical. Here is the method:
Further, the premix of amorphous solid dispersion with Soluplus is also unstable as depicted in FIG. 8.
In another aspect, the present application provides a crystalline Form OMT-D of Omecamtiv mecarbil dihydrochloride, characterized by a PXRD pattern comprising the peaks at about 12.98, 15.79, 18.55 and 25.63°±0.2° 2θ. In embodiments, the crystalline Form OMT-D of Omecamtiv mecarbil dihydrochloride is characterized by an additional peak at about 20.41°±0.2° 2θ. In embodiments, the application provides crystalline Form OMT-D of Omecamtiv mecarbil dihydrochloride, characterized by a PXRD pattern of FIG. 14. In embodiments, crystalline Form OMT-D of Omecamtiv mecarbil dihydrochloride is a solvate with dimethyl sulfoxide. In embodiments, crystalline Form OMT-D is monosolvate with dimethyl sulfoxide. In embodiments, crystalline Form OMT-D is stable for atleast 45 days stored in a closed container. In embodiments, the crystalline Form OMT-D is characterized by a thermogram of FIG. 16.

The conditions of data set [2]: described in the '270 application; cited from earlier work.

Where a name gives a salt, the structure may show the parent alone.

Take `COC(=O)N1CCN(Cc2cccc(NC(=O)Nc3ccc(C)nc3)c2F)CC1` [Form OMT-D, Omecamtiv mecarbil dihydrochloride]: in data set [1] (stored in a closed container), the “stable for at least (time stored)” value is no less than 45 days. With `COC(=O)N1CCN(Cc2cccc(NC(=O)Nc3ccc(C)nc3)c2F)CC1` [anhydrous form B, Omecamtiv mecarbil dihydrochloride], the “stability of crystalline form (result in words)” value in data set [2] was “metastable”. Take `COC(=O)N1CCN(Cc2cccc(NC(=O)Nc3ccc(C)nc3)c2F)CC1` [Omecamtiv mecarbil dihydrochloride]: in data set [1] (as depicted by PXRD in FIG. 5 / FIG. 8), the “stability of amorphous state (result in words)” value was “unstable”.
